The nature of series [1]: Antiviral activity against Influenza A virus (A/Thailand/Kan353/2004(H5N1)) co-expressing NA plasmid infected in 293T cells assessed as inhibition of viral entry incubated for 30 mins followed by addition of cells measured after 48 hrs by luciferase reporter gene assay. Type of series: functional, cell-based. To be noted: HEK-293T. A general note: A reporter such as luciferase makes a cellular process visible.

Series [2] can be described thus: Cytotoxicity against MDCK cells after 2 days by MTT assay. To be noted: dog. Type of series: cell-based, Canis lupus familiaris.
A short description of series [3]: Selectivity index, ratio of CC50 for MDCK cells to IC50 for Influenza A virus (A/Thailand/Kan353/2004(H5N1). It is filed as toxicity. To be noted: dog, read-out: Ratio CC50/IC50.
Another series has as its system Influenza A virus. The series can be described thus: Inhibition of Influenza A virus H5N1 neuraminidase N1 subtype at 20 uM/L after 30 mins by fluorescence assay.
Series [4] has as its system Human immunodeficiency virus 1. The series can be described thus: Antiviral activity against VSV-g pseudotyped HIV1 infected in 293T cells cotransfected with HA and NA plasmid incubated for 30 mins followed by addition of cells measured after 48 hrs by luciferase reporter gene assay. It is filed as functional, cell-based.
Series [5] concerns the target Peptidyl-prolyl cis-trans isomerase FKBP1A (Homo sapiens) (UniProt P62942). The series can be described thus: Binding affinity to FKBP12 (unknown origin) after 250 secs by SPR analysis. (In general: Surface plasmon resonance follows binding to a sensor surface in real time, without labels.)
The nature of series [6]: (§1) Binding affinity to Influenza A virus (A/Vietnam/1194/2004(H5N1)) His-tagged hemagglutinin after 250 secs by SPR analysis.
Series [7] has as its system Influenza A virus (A/Vietnam/1194/2004(H5N1)). The series is described as §1.
Series [8] deals with Influenza A virus (A/Puerto Rico/8/1934(H1N1)). The series can be described thus: Inhibition of Influenza A virus (A/Puerto Rico/8/34(H1N1)) […] hemagglutination of chicken RBC at 20 uM incubated for 1 hr followed by chicken RBC addition measured for 10 mins.
A short description of series [9]: (§2) Binding affinity to Influenza A virus (A/Viet Nam/1203/2004(H5N1)) Fc-tagged hemagglutinin 2 after 250 secs by SPR analysis.
In series [10] the test system is Influenza A virus (A/Viet Nam/1203/2004(H5N1)). Described as §2.

One may read the IC50 as the concentration that inhibits the measured activity by half. The CC50 is the concentration at which the toxic effect on the cells reaches its halfway point. Lower therefore signals greater toxicity to the cells. The term Kd denotes the equilibrium constant for the complex coming apart. Read a high Kd as a looser complex.

The source made the active and inactive calls. No cut-off for these calls is given here.

Chain of Peptidyl-prolyl cis-trans isomerase FKBP1A (Homo sapiens) (P62942 whole entry): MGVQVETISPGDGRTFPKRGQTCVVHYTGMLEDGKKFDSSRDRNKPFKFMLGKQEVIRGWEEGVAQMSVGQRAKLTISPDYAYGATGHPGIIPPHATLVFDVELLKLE

For the compound `CC1(C)CC[C@]2(C(=O)OCc3ccccc3)CC[C@]3(C)C(=CC[C@@H]4[C@@]5(C)CC[C@H](O[C@@H]6O[C@H](CO)[C@@H](O[C@@H]7OC[C@@H](O)[C@@H](O)[C@@H]7O)[C@H](O)[C@H]6O[C@@H]6OC[C@@H](O)[C@@H](O)[C@@H]6O)C(C)(C)[C@@H]5CC[C@]43C)[C@@H]2C1`, the half-maximal inhibitory concentration (IC50) in series [1] is > 50 µM. In series [2], half-maximal cytotoxicity (CC50 at 48 h) was put at 48.2 µM. For the same compound, the selectivity ratio in series [3] is < 1.
With `C[C@@H]1O[C@@H](O[C@H]2[C@H](O[C@H]3CC[C@]4(C)[C@H]5CC=C6[C@@H]7CC(C)(C)CC[C@]7(C(=O)OCc7ccccc7)CC[C@@]6(C)[C@]5(C)CC[C@H]4C3(C)C)O[C@H](CO)[C@@H](O[C@@H]3O[C@@H](C)[C@H](O)[C@@H](O)[C@H]3O)[C@@H]2O)[C@H](O)[C@H](O)[C@H]1O`, the IC50 in [1] is 4.82 µM. For the same compound, half-maximal cytotoxicity in series [2] (CC50 at 48 h) was put at 23.5 µM. In series [3], the selectivity ratio worked out at 4.9.
Regarding `COC(=O)[C@]12CCC(C)(C)C[C@H]1C1=CC[C@@H]3[C@@]4(C)CC[C@H](O[C@@H]5O[C@H](CO)[C@@H](O)[C@H](O[C@@H]6O[C@@H](C)[C@H](O)[C@@H](O)[C@H]6O)[C@H]5O)C(C)(C)[C@@H]4CC[C@@]3(C)[C@]1(C)CC2`, in series [1], the IC50 is > 50 µM. The cytotoxic concentration (CC50) at 48 h in [2] was found to be 25.3 µM. For the same compound, the selectivity ratio in series [3] was < 1.
The corresponding values for `COC(=O)[C@]12CCC(C)(C)C[C@H]1C1=CC[C@@H]3[C@@]4(C)CC[C@H](O[C@@H]5O[C@H](CO)[C@@H](O)[C@H](O)[C@H]5O[C@@H]5O[C@@H](C)[C@H](O)[C@@H](O)[C@H]5O)C(C)(C)[C@@H]4CC[C@@]3(C)[C@]1(C)CC2` are 16.3 µM, 23.6 µM and 1.4.
As to `O=C(NCCN1CCCCC1)c1cc(F)cc(C(F)(F)F)c1`, the IC50 in [1] stood at 4.45 µM. In addition, the selectivity ratio in [3] was found to be 332.
For the compound `COC(=O)[C@]12CCC(C)(C)C[C@H]1C1=CC[C@@H]3[C@@]4(C)CC[C@H](O[C@@H]5O[C@H](CO)[C@@H](O)[C@H](O[C@@H]6O[C@@H](C)[C@H](O)[C@@H](O)[C@H]6O)[C@H]5O[C@@H]5O[C@@H](C)[C@H](O)[C@@H](O)[C@H]5O)C(C)(C)[C@@H]4CC[C@@]3(C)[C@]1(C)CC2`, the IC50 in series [1] was > 50 µM. The compound further showed a CC50 at 48 h in [2] of 22.4 µM. In [3], the selectivity ratio was < 1.
For `COC(=O)[C@]12CCC(C)(C)C[C@H]1C1=CC[C@@H]3[C@@]4(C)CC[C@H](O[C@@H]5O[C@H](CO)[C@@H](O[C@@H]6O[C@@H](C)[C@H](O)[C@@H](O)[C@H]6O)[C@H](O)[C@H]5O[C@@H]5O[C@@H](C)[C@H](O)[C@@H](O)[C@H]5O)C(C)(C)[C@@H]4CC[C@@]3(C)[C@]1(C)CC2`, the IC50 in [1] came to 4.74 µM. In addition, in series [3], the selectivity ratio came out at 3.6.
Turning to `CC1(C)CC[C@]2(C(=O)OCc3ccccc3)CC[C@]3(C)C(=CC[C@@H]4[C@@]5(C)CC[C@H](O[C@@H]6O[C@H](CO)[C@@H](O[C@@H]7OC[C@H](O)[C@H](O)[C@H]7O)[C@H](O)[C@H]6O[C@@H]6OC[C@H](O)[C@H](O)[C@H]6O)C(C)(C)[C@@H]5CC[C@]43C)[C@@H]2C1`, in series [1], the IC50 was > 50 µM. Also, it took 26.4 µM to reach half-maximal cytotoxicity in series [2] (CC50 at 48 h). In addition, the selectivity ratio in [3] is < 1.
The corresponding values for `C[C@H]1O[C@H](O[C@@H]2[C@H](O)[C@@H](O[C@H]3O[C@H](C)[C@@H](O)[C@H](O)[C@@H]3O)[C@H](O[C@H]3CC[C@]4(C)[C@H]5CC=C6[C@@H]7CC(C)(C)CC[C@]7(C(=O)OCc7ccccc7)CC[C@@]6(C)[C@]5(C)CC[C@H]4C3(C)C)O[C@@H]2CO)[C@@H](O)[C@@H](O)[C@@H]1O` are 9.36 µM, 82.4 µM and 8.8.
On to `C[C@@H]1O[C@H](O[C@H]2[C@H](O[C@H]3CC[C@]4(C)[C@H]5CC=C6[C@@H]7CC(C)(C)CC[C@]7(C(=O)OCc7ccccc7)CC[C@@]6(C)[C@]5(C)CC[C@H]4C3(C)C)O[C@H](CO)[C@@H](O[C@H]3O[C@@H](C)[C@@H](O)[C@@H](O)[C@@H]3O)[C@@H]2O)[C@@H](O)[C@H](O)[C@@H]1O`, for which the IC50 in [1] is 8.65 µM. Besides, in the series on Influenza A virus, the inhibition entry was “inactive”. Besides, in series [4], the outcome was inactive. In series [2], this compound displayed a CC50 at 48 h of 27.4 µM. In series [3], the selectivity ratio turned out to be 3.2.
As to `C[C@@H]1O[C@@H](O[C@H]2[C@H](O[C@H]3CC[C@]4(C)[C@H]5C(=O)C=C6[C@@H]7CC(C)(C)CC[C@]7(C(=O)OCc7ccccc7)CC[C@@]6(C)[C@]5(C)CC[C@H]4C3(C)C)O[C@H](CO)[C@@H](O[C@@H]3O[C@@H](C)[C@H](O)[C@@H](O)[C@H]3O)[C@@H]2O)[C@H](O)[C@H](O)[C@H]1O`, in series [1], the IC50 was 4.05 µM. For the same compound, the outcome in series [5] and in series [4] was inactive. Moreover, the results for the dissociation constant (Kd) in series [6] and in series [9] were 0.0617 µM and 0.00386 µM, respectively. Moreover, the Activity result in [7] and in [10] was “Dose-dependent effect” in each case. Further, the inhibition entry (in the series on Influenza A virus; in series [8]) was “inactive” throughout. In [2], this compound showed a CC50 at 48 h of 92.7 µM. In addition, the selectivity ratio in series [3] came to 22.9.
On to `C[C@H]1O[C@H](O[C@H]2[C@H](O[C@H]3CC[C@]4(C)[C@H]5CC=C6[C@@H]7CC(C)(C)CC[C@]7(C(=O)OCc7ccccc7)CC[C@@]6(C)[C@]5(C)CC[C@H]4C3(C)C)O[C@H](CO)[C@@H](O[C@H]3O[C@H](C)[C@@H](O)[C@H](O)[C@@H]3O)[C@@H]2O)[C@@H](O)[C@@H](O)[C@@H]1O`, for which the IC50 in series [1] was > 50 µM. In addition, the CC50 at 48 h in [2] amounted to 52.4 µM. Further, in series [3], the selectivity ratio was < 1.
Consider `COC(=O)[C@]12CCC(C)(C)C[C@H]1C1=CC[C@@H]3[C@@]4(C)CC[C@H](O[C@@H]5O[C@H](CO)[C@H](O[C@H]6O[C@H](C)[C@@H](O)[C@H](O)[C@@H]6O)[C@H](O)[C@H]5O[C@H]5O[C@H](C)[C@@H](O)[C@H](O)[C@@H]5O)C(C)(C)[C@@H]4CC[C@@]3(C)[C@]1(C)CC2`, for which the 50% inhibitory concentration (IC50) in series [1] was found to be 11.1 µM. This compound displayed a cytotoxic concentration (CC50) at 48 h in [2] of 45.6 µM. Besides, in [3], the selectivity ratio was 4.1.
Taken in the same sequence, the figures for `COC(=O)[C@]12CCC(C)(C)C[C@H]1C1=CC[C@@H]3[C@@]4(C)CC[C@@H](O[C@@H]5O[C@H](CO)[C@@H](O[C@@H]6O[C@@H](C)[C@H](O)[C@@H](O)[C@H]6O)[C@H](O)[C@H]5O[C@@H]5O[C@@H](C)[C@H](O)[C@@H](O)[C@H]5O)C(C)(C)[C@@H]4CC[C@@]3(C)[C@]1(C)CC2` were 5.06 µM, > 200 µM and > 40.
In the case of `C[C@@H]1O[C@@H](O[C@H]2[C@H](O[C@@H]3CC[C@]4(C)[C@H]5CC=C6[C@@H]7CC(C)(C)CC[C@]7(C(=O)OCc7ccccc7)CC[C@@]6(C)[C@]5(C)CC[C@H]4C3(C)C)O[C@H](CO)[C@@H](O[C@@H]3O[C@@H](C)[C@H](O)[C@@H](O)[C@H]3O)[C@@H]2O)[C@H](O)[C@H](O)[C@H]1O`, the half-inhibitory concentration (IC50) in series [1] came out at 5.88 µM. The result in series [5] and in [4] was inactive. Also, the equilibrium dissociation constant (Kd) in [6] came out at 0.443 µM; in series [9] it was 0.000553 µM. For the same compound, the Activity entry in series [7] and in series [10] was “Dose-dependent effect” throughout. Besides, the inhibition result with Influenza A virus was “inactive”. Also, in [2], the CC50 at 48 h is > 200 µM. Moreover, the selectivity ratio in series [3] was > 34.
Consider `CC1(C)CC[C@]2(C(=O)OCc3ccccc3)CC[C@]3(C)C(=CC[C@@H]4[C@@]5(C)CC[C@H](O[C@@H]6O[C@H](CO)[C@@H](O[C@H]7OC[C@@H](O)[C@H](O)[C@H]7O)[C@H](O)[C@H]6O[C@H]6OC[C@@H](O)[C@H](O)[C@H]6O)C(C)(C)[C@@H]5CC[C@]43C)[C@@H]2C1`, for which the half-inhibitory concentration (IC50) in series [1] is > 50 µM. For the same compound, the midpoint of cytotoxicity in series [2], the CC50 at 48 h, lay at 20.8 µM. For the same compound, the selectivity ratio in [3] was < 1.
In the case of `COC(=O)[C@]12CCC(C)(C)C[C@H]1C1=CC(=O)[C@@H]3[C@@]4(C)CC[C@H](O[C@@H]5O[C@H](CO)[C@@H](O[C@@H]6O[C@@H](C)[C@H](O)[C@@H](O)[C@H]6O)[C@H](O)[C@H]5O[C@@H]5O[C@@H](C)[C@H](O)[C@@H](O)[C@H]5O)C(C)(C)[C@@H]4CC[C@@]3(C)[C@]1(C)CC2`, in series [1], the IC50 came to 4.1 µM. In [2], the CC50 at 48 h was found to be 33.8 µM. Moreover, the selectivity ratio in series [3] was found to be 8.3.
